According to patent EP1255573B1, “COMPOSITIONs comprising monoperphthalic acid useful for treating contact lens” (Novartis AG, priority 2000, dated 2001):

What was measured:
Solubility (statement) = format: physicochemical
[1] = Stability of magnesium perphthalate (statement); format: physicochemical
[2] = system: L929 mammalian fibroblasts; test: MEM toxicity test (USP standard elution cytotoxicity, trypan blue); format: cell-based; set-up: key to toxicity, MEM level / MEM Result: 0: No cell lysis - Discrete intracytoplasmic granules; 1: Not more than 20% of cells round and loosely attached - occasional lysed cells present; 2: Not more than 50% of cells round - extensive cell lysis and empty areas between cells; 3: Not more than 70% of the cell layers contain rounded cells and/or lysed; 4: Nearly complete destruction of the cell layer
Excerpt: In testing the toxicity of compounds of the compositions disclosed in solution, an MEM test procedure is used. The MEM (Minimum Essential Medium) test procedure is employed to evaluate cytoxicity using standard USP (The United States Pharmacopeial Convention) elution assays. A description of the test procedure is provided herein.
The assay provides a means of evaluating extracts of polymeric materials under direct contact conditions. This method is appropriate for high-density materials and for dose-response evaluations.
Media Preparation: 1X MEM media is prepared by mixing 100 mL Eagle's MEM (with Earl's Salts and Sodium Bicarbonate, without L-glutamine), with 10mL serum, 1 mL-glutamine solution, and 0.5 mL antibiotic solution (L-glutamine and antibiotic solutions are purchased at correct concentrations and stored frozen at -20 °C±2). Eagle's
Before use, a 4 ml aliquot of 10X trypsin is diluted 1:9 with 36 ml of Dulbecco's Phosphate Buffered Saline (PBS) to yield a 0.25% solution. Dulbecco's Saline is available from Mediatech Cellgro. Sterile 35 mm diameter petri dishes or 6 well tissue culture plates are used. Sterile serological pipets are employed in the procedure. Sterile absorbent material (e.g. Kay-Drys or similar material) is used. L929 mammalian fibroblasts (ATCC cell line CCL1, NCTC clone 929) are employed.
Overview of Method: Cell cultures are grown to a near confluent monolayer in 6 well plates (the wells are 35mm). After the test, material is extracted under various conditions (i.e. extracting medium, time, temperature) so as to allow evaluation of extract toxicity in accordance with USP procedures. These procedures define methods to be used to extract materials for in vivo or in vitro toxicity evaluations in accordance with United States Pharmacopoeia (USP). The Sodium Chloride Injection extract is diluted with serum-supplemented cell culture medium at 25% extract concentration. Each culture is examined microscopically after 48 hours using trypan blue for the presence of morphological changes, reduction in cell density or cell lysis induced by the test material.
Cell Layer Preparation: The next step is to tryptanize cells. Next, one determines cell density using standard methods to define standard cell biology methods to be used to determine and adjust the concentration of a cell suspension, i.e. cell density. Then, an adjustment is made to yield a standard cell suspension with a density of 250,000 to 350,000 cell/mL in serum supplemented MEM for L929 cells. Seed cells are placed into 6 well plates by pipetting 2 ml of the standard cell suspension into each well. […]
Exposure to Test Extracts: Exposure to test extracts is determined examining a representative prepared cell culture plate using the microscope to observe the cell monolayer for correct confluency. […]

With `O.O.O.O.O.O.O=C([O-])c1ccccc1C(=O)O[O-].[Mg+2]` [magnesium perphthalate, magnesium monoperoxyphthalate hexahydrate] the solubility (Solubility (statement)) was “freely soluble”, the stability ([1]; in aqueous solution) was “not stable” and the stability ([1]; in solid form) was “stable”. For the same compound, the “toxicity, MEM Test Result level” value ([2]; concentrations below 0.5%, generally) was 1 (Not more than 20% of cells round and loosely attached - occasional lysed cells present), the “toxicity, MEM level” value ([2]; concentrations of 0.5% and above, with and without saline) was 4 and the toxicity ([2]; concentrations of about 0.25% and below in a chloride or other halide-containing solution) was “not toxic”. For the same compound, the “MEM Result” value ([2]; some test results at below 0.5% magnesium perphthalate) was 0.
